Five compounds from ChEMBL document CHEMBL3612054 (Bioorg Med Chem, 2015) can be followed below.

SMILES strings stand for the structures. In brackets after ≈: the same amount, converted by molar mass.

In data set [1] the target is T1, Voltage-gated inwardly rectifying potassium channel KCNH2 (Homo sapiens, UniProt Q12809).
Description: (§1) Displacement of [3H]-astemizole from human ERG
The nature of data set [2]: Metabolic stability of the compound in plasma (unknown origin) assessed as compound remaining at 10 uM after 60 mins. Type of data set: ADME, cell-free. To be noted: read-out: Stability.
Data set [3] is described as follows: Solubility of the compound in 10 mM phosphate buffer at pH 7.4 after 90 mins by LC/MS analysis. Type of data set: physicochemical.
Data set [4] in a line: Permeability of the compound at pH 5.5 at 10 uM by PAMPA. Type of data set: physicochemical. To be noted: pH 5.5, 10 µM. (PAMPA measures passive passage across an artificial lipid membrane.)
In data set [5] the test system is MDCK. The data set can be described thus: Permeability from apical to basolateral side in MDCK cells expressing human MDR1 at 10 uM after 1 hr by chromatography analysis. Type of data set: ADME, cell-based, Canis lupus familiaris. The conditions noted are these: dog.
Data set [6] can be described thus: Solubility of the compound in 10 mM phosphate buffer at pH 3 after 90 mins by LC/MS analysis. Type of data set: physicochemical.
Data set [7] in a line: Metabolic stability of the compound in hepatic S9 fraction (unknown origin) assessed as compound remaining at 10 uM after 60 mins. Type of data set: ADME, tissue-based, Liver. The conditions noted are these: read-out: Stability.
Data set [8] in a line: Permeability of the compound at pH 7.4 at 10 uM by PAMPA. Type of data set: physicochemical. The conditions noted are these: pH 7.4, 10 µM.
The target in data set [9] is T1, Voltage-gated inwardly rectifying potassium channel KCNH2. The source holds these as a separate data set.
Description: as §1
The target in data set [10] is Delta-type opioid receptor (Homo sapiens) (UniProt P41143).
Delta-type opioid receptor (Homo sapiens), sequence (P41143 whole entry): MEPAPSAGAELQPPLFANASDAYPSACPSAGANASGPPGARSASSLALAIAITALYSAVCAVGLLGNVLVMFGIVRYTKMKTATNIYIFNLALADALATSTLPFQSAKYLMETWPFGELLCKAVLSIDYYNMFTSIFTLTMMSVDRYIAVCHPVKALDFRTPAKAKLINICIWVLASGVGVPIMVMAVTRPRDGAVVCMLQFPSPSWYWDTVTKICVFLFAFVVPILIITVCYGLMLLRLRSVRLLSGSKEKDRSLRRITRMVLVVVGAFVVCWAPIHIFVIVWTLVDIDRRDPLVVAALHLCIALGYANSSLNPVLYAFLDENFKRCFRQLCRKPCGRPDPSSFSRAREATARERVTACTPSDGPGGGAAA
Description: Antagonist activity at cloned human delta opioid receptor assessed as inhibition of DPDPE-induced [35S]GTPgammaS binding

T1 sequence (Q12809 whole entry): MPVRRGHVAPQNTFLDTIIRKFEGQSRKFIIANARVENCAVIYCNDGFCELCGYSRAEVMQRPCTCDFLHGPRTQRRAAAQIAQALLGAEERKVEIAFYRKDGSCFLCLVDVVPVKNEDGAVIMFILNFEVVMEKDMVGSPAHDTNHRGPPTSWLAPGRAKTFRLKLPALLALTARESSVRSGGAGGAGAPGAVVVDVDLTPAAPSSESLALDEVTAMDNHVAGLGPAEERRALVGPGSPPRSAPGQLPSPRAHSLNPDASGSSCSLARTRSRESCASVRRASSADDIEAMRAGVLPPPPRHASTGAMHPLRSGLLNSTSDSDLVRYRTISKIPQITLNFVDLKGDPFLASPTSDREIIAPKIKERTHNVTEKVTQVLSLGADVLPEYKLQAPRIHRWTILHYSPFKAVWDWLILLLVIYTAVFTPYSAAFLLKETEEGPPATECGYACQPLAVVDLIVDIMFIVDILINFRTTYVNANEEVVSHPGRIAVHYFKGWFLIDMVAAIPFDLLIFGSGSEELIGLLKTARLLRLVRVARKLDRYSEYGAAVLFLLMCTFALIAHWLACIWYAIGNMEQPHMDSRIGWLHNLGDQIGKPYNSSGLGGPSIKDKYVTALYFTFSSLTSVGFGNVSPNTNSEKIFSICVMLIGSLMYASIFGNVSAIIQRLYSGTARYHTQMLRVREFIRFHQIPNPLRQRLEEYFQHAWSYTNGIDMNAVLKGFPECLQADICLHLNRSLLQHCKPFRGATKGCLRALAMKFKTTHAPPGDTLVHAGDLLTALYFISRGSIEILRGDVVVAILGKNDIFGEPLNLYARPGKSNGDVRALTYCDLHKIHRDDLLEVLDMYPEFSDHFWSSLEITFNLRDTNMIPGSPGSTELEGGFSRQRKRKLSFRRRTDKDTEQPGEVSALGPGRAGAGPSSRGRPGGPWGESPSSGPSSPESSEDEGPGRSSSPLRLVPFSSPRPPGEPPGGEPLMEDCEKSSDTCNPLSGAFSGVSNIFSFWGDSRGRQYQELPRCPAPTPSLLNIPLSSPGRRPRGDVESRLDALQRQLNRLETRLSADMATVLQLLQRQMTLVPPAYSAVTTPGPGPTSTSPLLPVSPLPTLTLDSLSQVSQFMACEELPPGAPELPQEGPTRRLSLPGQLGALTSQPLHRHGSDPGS

As a reminder, the Ki is the equilibrium dissociation constant of an inhibitor or competing ligand from its target. High values mean a looser hold on the target, low ones a stronger hold on the target. What is called solubility is the dissolved amount per volume that the medium holds. Regarding `CC(C)[C@@H](CN1CC[C@@](C)(c2cccc(O)c2)[C@@H](C)C1)NC(=O)[C@H]1Cc2ccc(O)cc2CN1` [JDTIC], in data set [1], the Ki was 8.82 µM. Also, the values for the remaining at 1 h, 10 µM in data set [2] and in data set [7] were 97% and 76%, respectively. Moreover, the solubility in data set [3] came to 11 µM (≈ 5.12 µg/mL); in data set [6], 34 µM (≈ 15.8 µg/mL). Besides, the permeability in [4] was 57.9%; in data set [5], 11%.

For the compound `CC(C)[C@@H](CN1CC[C@@](C)(c2ccccc2)[C@@H](C)C1)NC(=O)[C@H]1Cc2ccc(O)cc2CN1`, affinity in data set [1] was put at a Ki of 7.05 µM. Further, the figures for the remaining at 1 h, 10 µM in data set [2] and in data set [7] were 67% and 82%, respectively. For the same compound, the permeability in data set [8] worked out at 91.4%; in data set [4] it was 67.3%; in data set [5], 27%. The solubility was determined as 11 µM (≈ 4.95 µg/mL) in [3] and 42 µM (≈ 18.9 µg/mL) in data set [6].

Consider `CC(C)[C@@H](CN1CCC(c2cccc(F)c2)CC1)NC(=O)[C@H]1Cc2ccc(O)cc2CN1`, for which, in [9], the Ki came to 436 nM.

For `CC(C)[C@@H](CN1CCC(c2ccccc2)CC1)NC(=O)[C@H]1Cc2ccc(O)cc2CN1`, the Ke in data set [10] stood at 281 nM. Also, the Ki in data set [9] worked out at 777 nM.

Consider `CC(C)[C@@H](CN1CCC(C)(c2cccc(F)c2)CC1)NC(=O)[C@H]1Cc2ccc(O)cc2CN1`, for which, in data set [9], affinity was put at a Ki of 4240 nM. In [5], this compound registered a permeability of 1.3%.
